Results: PMC4928094, “The first characterization of multidrug and toxin extrusion (MATE/SLC47) proteins in zebrafish (Danio rerio)” (Scientific Reports, 2016)

Key:
zebrafish Mate3 = biological target: T1, zebrafish Mate3 (Danio rerio, UniProt A1L1P9); assay: Uptake of fluorescent dyes by HEK293T cells overexpressing zebrafish Mate3; settings: dye uptake, mean ± SD; for Km: triplicate, representative experiment
T1 sequence (A1L1P9 1-590): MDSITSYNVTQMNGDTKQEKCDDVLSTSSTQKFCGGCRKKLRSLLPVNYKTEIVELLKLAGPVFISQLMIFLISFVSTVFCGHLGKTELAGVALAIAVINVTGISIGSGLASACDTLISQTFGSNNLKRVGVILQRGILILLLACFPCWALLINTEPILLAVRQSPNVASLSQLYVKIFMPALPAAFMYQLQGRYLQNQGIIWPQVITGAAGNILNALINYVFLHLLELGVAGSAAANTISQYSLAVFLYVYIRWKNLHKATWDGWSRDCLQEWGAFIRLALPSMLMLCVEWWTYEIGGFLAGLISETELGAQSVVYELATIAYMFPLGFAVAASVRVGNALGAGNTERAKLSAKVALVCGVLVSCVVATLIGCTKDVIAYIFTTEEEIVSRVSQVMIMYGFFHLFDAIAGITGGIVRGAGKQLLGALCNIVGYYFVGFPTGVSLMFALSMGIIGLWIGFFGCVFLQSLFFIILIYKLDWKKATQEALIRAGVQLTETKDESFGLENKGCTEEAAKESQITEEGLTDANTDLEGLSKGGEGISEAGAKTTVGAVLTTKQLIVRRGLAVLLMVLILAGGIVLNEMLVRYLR
Method: (§1) HEK293T cells were transiently transfected as described previously[31] using the PEI (polyethyleneimine) reagent in 48-well plates. Cells were in parallel transfected with pcDNA3.1/His/LacZ plasmid and transfection efficiency was evaluated 24 h after transfection with the LacZ staining protocol.
(§2) HEK293T cells overexpressing respective single zebrafish Mate transporter were used for further experiments. Cell uptake of all substrates except DAPI was measured in sodium based transport medium (145 mM NaCl, 3 mM KCl, 1 mM CaCl2, 0.5 mM MgCl2, 5 mM glucose and 10 mM Tris, pH 8.4). Briefly, after 5 minute incubation period, the cells were rapidly washed two times with ice-cold phosphate-buffered saline (PBS), lysed in 250 μL of 0.1% sodium dodecyl sulphate for 30 min and transferred to the black 96-well plates where fluorescence was measured using the microplate reader (Infinite M200, Tecan, Salzburg, Austria) at following excitation and emission wavelengths: ASP^+, 450/590 nm; EtBr, 535/590 nm; Rh123, 485/530 nm; berberine, 355/540 nm; amiloride, 366/418 nm. […] DAPI fluorescence was measured at 360 and 460 nm […], respectively. The uptake into vector-transfected HEK293T cells (mock cells) was subtracted to obtain transporter-specific uptake.
(§3) Calibration curves for all substrates were generated in 0.1% SDS and in the cell matrix dissolved in 0.1% SDS. […] Using the calibration curves, uptake was expressed as pmol of substrate per mg of protein per minute. Total cell protein content was determined according to the Bradford method.
(§4) All assays were performed in 3–5 independent experiments run in triplicates. Data shown on related figures represent mean ± standard errors (SE) or standard deviations (SD). All calculations were performed using GraphPad Prism 5.00 for Windows (GraphPad Software, San Diego, California, USA) as described below. The kinetic parameters, Km and Vmax values were calculated using the Michaelis-Menten equation,
where V is velocity (picomoles of substrate per milligram of proteins per minute), Vmax is maximal velocity, [S] is substrate concentration and Km is the Michaelis Menten constant. The uptake into vector-transfected HEK293 cells was subtracted to obtain transporter-specific uptake.

zebrafish Mate6 = zebrafish Mate6 (Danio rerio, UniProt A1L2E7); assay: Uptake of fluorescent dyes by HEK293T cells overexpressing zebrafish Mate6; settings: dye uptake, mean ± SD
Method: as §1, §2, §3
as §4, with “equation, […]” for “equation,”

zebrafish Mate8 = zebrafish Mate8 (Danio rerio, UniProt A0A8M6YZ09); assay: Uptake of fluorescent dyes by HEK293T cells overexpressing zebrafish Mate8; settings: dye uptake, mean ± SD, NT = no transport found
Method: as §1, §2, §3
as §4, with “equation, […]” for “equation,”

zebrafish Mate7 = zebrafish Mate7 (Danio rerio, UniProt U3PTD6); assay: Uptake of fluorescent dyes by HEK293T cells overexpressing zebrafish Mate7; settings: dye uptake, mean ± SD
Method: as §1, §2, §3
as §4, with “equation, […]” for “equation,”

zebrafish Mate4 = zebrafish Mate4 (Danio rerio, UniProt U3Q0C3); assay: Uptake of fluorescent dyes by HEK293T cells overexpressing zebrafish Mate4; settings: dye uptake, mean ± SD, NT = no transport found
Method: as §1, §2, §3
as §4, with “equation, […]” for “equation,”

Sequence of zebrafish Mate7 (U3PTD6 entry or part of it): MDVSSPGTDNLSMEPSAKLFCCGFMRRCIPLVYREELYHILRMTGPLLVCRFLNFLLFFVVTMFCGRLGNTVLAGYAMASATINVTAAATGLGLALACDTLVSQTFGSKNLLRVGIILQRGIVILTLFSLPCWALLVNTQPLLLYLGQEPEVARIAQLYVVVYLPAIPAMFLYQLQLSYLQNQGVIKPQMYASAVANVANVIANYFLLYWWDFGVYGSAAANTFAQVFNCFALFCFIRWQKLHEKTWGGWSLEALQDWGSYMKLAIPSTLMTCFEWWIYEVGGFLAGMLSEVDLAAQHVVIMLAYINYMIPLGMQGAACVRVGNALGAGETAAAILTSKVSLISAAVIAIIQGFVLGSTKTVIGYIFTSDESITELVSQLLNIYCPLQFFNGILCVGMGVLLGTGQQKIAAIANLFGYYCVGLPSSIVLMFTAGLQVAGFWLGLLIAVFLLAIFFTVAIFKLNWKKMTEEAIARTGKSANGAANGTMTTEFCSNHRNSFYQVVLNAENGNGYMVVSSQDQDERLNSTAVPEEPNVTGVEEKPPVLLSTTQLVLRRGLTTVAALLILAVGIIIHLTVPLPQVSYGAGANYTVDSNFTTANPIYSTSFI
Sequence of zebrafish Mate8 (A0A8M6YZ09 entry or part of it): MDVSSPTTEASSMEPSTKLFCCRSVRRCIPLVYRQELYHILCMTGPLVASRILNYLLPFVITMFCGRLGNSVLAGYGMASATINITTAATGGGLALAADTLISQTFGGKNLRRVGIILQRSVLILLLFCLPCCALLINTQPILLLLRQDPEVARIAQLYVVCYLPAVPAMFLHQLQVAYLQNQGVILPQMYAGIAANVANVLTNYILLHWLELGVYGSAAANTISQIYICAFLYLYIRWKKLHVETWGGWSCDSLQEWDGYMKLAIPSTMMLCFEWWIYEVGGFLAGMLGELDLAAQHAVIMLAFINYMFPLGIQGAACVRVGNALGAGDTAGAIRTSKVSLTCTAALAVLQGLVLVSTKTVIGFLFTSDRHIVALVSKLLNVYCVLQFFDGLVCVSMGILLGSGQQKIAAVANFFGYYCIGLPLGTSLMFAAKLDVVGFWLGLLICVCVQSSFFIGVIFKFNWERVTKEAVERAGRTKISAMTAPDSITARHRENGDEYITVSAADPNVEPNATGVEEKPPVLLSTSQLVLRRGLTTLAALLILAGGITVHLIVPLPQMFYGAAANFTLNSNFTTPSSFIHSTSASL
Sequence of zebrafish Mate6 (A1L2E7 entry or part of it): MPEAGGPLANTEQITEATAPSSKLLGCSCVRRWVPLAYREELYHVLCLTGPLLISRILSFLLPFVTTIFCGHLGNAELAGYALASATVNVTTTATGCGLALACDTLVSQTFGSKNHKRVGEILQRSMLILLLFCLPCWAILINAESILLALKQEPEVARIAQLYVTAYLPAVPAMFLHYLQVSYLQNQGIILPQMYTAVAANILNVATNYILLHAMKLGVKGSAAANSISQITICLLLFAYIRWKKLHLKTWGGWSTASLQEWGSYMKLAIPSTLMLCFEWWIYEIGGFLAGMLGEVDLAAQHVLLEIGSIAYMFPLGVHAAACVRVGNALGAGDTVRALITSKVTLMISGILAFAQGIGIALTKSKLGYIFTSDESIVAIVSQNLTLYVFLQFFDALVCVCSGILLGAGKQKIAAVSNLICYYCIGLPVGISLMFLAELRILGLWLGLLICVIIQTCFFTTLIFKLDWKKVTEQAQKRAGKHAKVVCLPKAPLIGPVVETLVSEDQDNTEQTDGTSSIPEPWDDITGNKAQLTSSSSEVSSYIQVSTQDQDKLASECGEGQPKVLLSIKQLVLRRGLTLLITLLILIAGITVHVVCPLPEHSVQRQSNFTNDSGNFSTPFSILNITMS
Sequence of zebrafish Mate4 (U3Q0C3 entry or part of it): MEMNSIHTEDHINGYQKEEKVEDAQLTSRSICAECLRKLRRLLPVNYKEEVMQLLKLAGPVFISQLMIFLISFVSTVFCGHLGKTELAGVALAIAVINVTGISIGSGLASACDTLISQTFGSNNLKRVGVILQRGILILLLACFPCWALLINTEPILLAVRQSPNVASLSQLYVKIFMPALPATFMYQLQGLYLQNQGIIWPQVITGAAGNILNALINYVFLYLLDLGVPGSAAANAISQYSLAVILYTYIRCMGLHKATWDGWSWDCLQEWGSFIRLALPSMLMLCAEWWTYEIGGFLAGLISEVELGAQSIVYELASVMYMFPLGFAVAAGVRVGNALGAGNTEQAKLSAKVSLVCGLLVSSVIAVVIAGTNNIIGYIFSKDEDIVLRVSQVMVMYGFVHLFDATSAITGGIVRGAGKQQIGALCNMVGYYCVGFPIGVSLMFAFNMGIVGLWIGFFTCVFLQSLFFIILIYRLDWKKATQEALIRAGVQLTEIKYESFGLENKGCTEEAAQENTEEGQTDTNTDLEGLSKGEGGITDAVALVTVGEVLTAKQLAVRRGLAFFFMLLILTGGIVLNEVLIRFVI

Row | vmax (zebrafish Mate3) [pmol/mg protein/min] | Km (zebrafish Mate6) [µM] | vmax (zebrafish Mate6) [pmol/mg protein/min] | Km (zebrafish Mate8) [µM] | vmax (zebrafish Mate8) [pmol/mg protein/min] | Km (zebrafish Mate4) [µM] | vmax (zebrafish Mate4) [pmol/mg protein/min] | Structure (SMILES) | Km (zebrafish Mate3) [µM] | Km (zebrafish Mate7) [µM] | vmax (zebrafish Mate7) [pmol/mg protein/min]
1 | 436 ± 21.8 | 0.26 ± 0.05 | 44.3 ± 1.80 | 0.55 ± 0.07 | 24.4 ± 0.70 | 0.29 ± 0.04 | 47.7 ± 2.27 | N=C(N)c1ccc(-c2cc3ccc(C(=N)N)cc3[nH]2)cc1 [DAPI, 4′,6-diamidino-2-phenylindole] | 2.83 ± 0.34 | 1.44 ± 0.19 | 193 ± 9.15
2 | 105 ± 5.16 |  | 55.6 ± 1.48 |  | 12.3 ± 0.61 |  | 1.03 ± 0.03 | COC(=O)c1ccccc1-c1c2ccc(=N)cc-2oc2cc(N)ccc12 [Rh123, rhodamine 123] |  |  | 4.79 ± 0.17

Row | Structure (SMILES) | vmax (zebrafish Mate3) [pmol/mg protein/min] | Km (zebrafish Mate6) [µM] | vmax (zebrafish Mate6) [pmol/mg protein/min] | Km (zebrafish Mate8) [µM] | vmax (zebrafish Mate8) [pmol/mg protein/min] | Km (zebrafish Mate4) [µM] | vmax (zebrafish Mate4) [pmol/mg protein/min] | Km (zebrafish Mate3) [µM] | Km (zebrafish Mate7) [µM] | vmax (zebrafish Mate7) [pmol/mg protein/min]
3 | CC[n+]1c(-c2ccccc2)c2cc(N)ccc2c2ccc(N)cc21 [EtBr, ethidium bromide] | 825 ± 25.5 |  |  |  |  |  |  | 5.56 ± 0.5 |  | 
